Experiments:
[1] = target: T1, SARS-CoV-2 main protease (M^pro) (Severe acute respiratory syndrome coronavirus 2, UniProt P0DTD1); assay: Rapid-Fire MS Biochemical Assay measuring Mpro activity (5 nM Mpro); conditions: Table 1B, Mpro inhibition, 5 μM substrate peptide, 120 min, read-out: Rapid-Fire Assay IC50
[2] = target: T1, SARS-CoV-2 main protease (M^pro); assay: Rapid-Fire MS Biochemical Assay measuring Mpro activity (12.5 nM Mpro); conditions: Table 1A, Mpro inhibition, 5 μM substrate peptide, 30 min

Question: Which IC50 [1] does the source give for `N#CC1CN(c2ccccc2)C(=O)N1c1cncc2ccccc12` (racemic) [Compound 1, 3-(isoquinolin-4-yl)-2-oxo-1-phenylimidazolidine-4-carbonitrile] here?
Answer: 20 to 200 nM

Question: What about the IC50 [2] of the same compound?
Answer: 37 nM

Question: Which IC50 [1] does the source give for `N#CC1CN(c2cccc(Cl)c2)C(=O)N1c1cncc2ccccc12` (racemic) [Compound 2, 1-(3-chlorophenyl)-3-(isoquinolin-4-yl)-2-oxoimidazolidine-4-carbonitrile] here?
Answer: < 20 nM

Question: And the IC50 [2]?
Answer: 5 nM

Question: With `N#CC1CN(c2ccc(C(F)(F)F)cn2)C(=O)N1c1cncc2ccccc12` (racemic) [Compound 3, 3-(isoquinolin-4-yl)-2-oxo-1-(5-(trifluoromethyl)pyridin-2-yl)imidazolidine-4-carbonitrile] as the compound, how does the IC50 [1] read?
Answer: < 20 nM

Question: What about the IC50 [2] of the same compound?
Answer: 7 nM

Question: For `N#CC1CN(c2ccc(C(F)(F)F)cc2)C(=O)N1c1cncc2ccccc12` (racemic) [Compound 4, 3-(isoquinolin-4-yl)-2-oxo-1-(4-(trifluoromethyl)phenyl)imidazolidine-4-carbonitrile], which IC50 [1] is on record?
Answer: < 20 nM

Question: And the IC50 [2]?
Answer: < 5 nM

Question: For `N#CC1CN(c2ccc(F)cc2)C(=O)N1c1cncc2ccccc12` (racemic) [Compound 6, 1-(4-fluorophenyl)-3-(isoquinolin-4-yl)-2-oxoimidazolidine-4-carbonitrile], which IC50 [1] is on record?
Answer: 20 to 200 nM

Question: What about the IC50 [2] of the same compound?
Answer: 27 nM

Question: With `N#CC1CN(c2cccc(F)c2)C(=O)N1c1cncc2ccccc12` (racemic) [Compound 7, 1-(3-fluorophenyl)-3-(isoquinolin-4-yl)-2-oxoimidazolidine-4-carbonitrile] as the compound, how does the IC50 [1] read?
Answer: < 20 nM

Question: What about the IC50 [2] of the same compound?
Answer: 6 nM

Question: With `N#CC1CN(c2ccc(Cl)cn2)C(=O)N1c1cncc2ccccc12` (racemic) [Compound 10, 1-(5-chloropyridin-2-yl)-3-(isoquinolin-4-yl)-2-oxoimidazolidine-4-carbonitrile] as the compound, how does the IC50 [1] read?
Answer: < 20 nM

Question: What about the IC50 [2] of the same compound?
Answer: 5 nM

Question: How did the IC50 [1] turn out when `N#C[C@H]1CN(c2ccccc2)C(=O)N1c1cncc2ccccc12` (single isomer, unassigned) [Compound 1a] was run?
Answer: < 20 nM

Question: What about the IC50 [2] of the same compound?
Answer: 9 nM

Question: Which results are given for `N#C[C@@H]1CN(c2ccccc2)C(=O)N1c1cncc2ccccc12` (single isomer, unassigned) [Compound 1b]?
Answer: IC50 [1]: > 1000 nM; IC50 [2]: 6400 nM

Question: For `N#C[C@H]1CN(c2cccc(Cl)c2)C(=O)N1c1cncc2ccccc12` (single isomer, unassigned) [Compound 2a], which IC50 [1] is on record?
Answer: < 20 nM

Question: And the IC50 [2]?
Answer: < 5 nM

Question: Which results are given for `N#C[C@@H]1CN(c2cccc(Cl)c2)C(=O)N1c1cncc2ccccc12` (single isomer, unassigned) [Compound 2b]?
Answer: IC50 [1]: > 1000 nM; IC50 [2]: 3000 nM

Question: How did the IC50 [1] turn out when `N#C[C@@H]1CN(C2CCC(F)(F)C2)C(=O)N1c1cncc2ccccc12` (single isomer, unassigned) [Compound 141c, (S)-1-((S)-3,3-difluorocyclopentyl)-3-(isoquinolin-4-yl)-2-oxoimidazolidine-4-carbonitrile or (S)-1-((R)-3,3-difluorocyclopentyl)-3-(isoquinolin-4-yl)-2-oxoimidazolidine-4-carbonitrile] was run?
Answer: > 1000 nM

Question: For `N#C[C@H]1CN([C@H]2CCC(F)(F)C2)C(=O)N1c1cncc2ccccc12` (single isomer, unassigned) [Compound 141d, (R)-1-((S)-3,3-difluorocyclopentyl)-3-(isoquinolin-4-yl)-2-oxoimidazolidine-4-carbonitrile or (R)-1-((R)-3,3-difluorocyclopentyl)-3-(isoquinolin-4-yl)-2-oxoimidazolidine-4-carbonitrile], which IC50 [1] is on record?
Answer: 20 to 200 nM

Question: What does the source list for `N#CC1CN(c2ccc(Cl)cc2)C(=O)N1c1cncc2ccccc12` (stereo not drawn) [Compound 5, 1-(4-chlorophenyl)-3-(isoquinolin-4-yl)-2-oxoimidazolidine-4-carbonitrile]?
Answer: IC50 [1]: < 20 nM; IC50 [2]: < 5 nM

Question: What does the source list for `N#CC1CN(c2ccc(F)cn2)C(=O)N1c1cncc2ccccc12` (stereo not drawn) [Compound 8, 1-(5-fluoropyridin-2-yl)-3-(isoquinolin-4-yl)-2-oxoimidazolidine-4-carbonitrile]?
Answer: IC50 [1]: 20 to 200 nM; IC50 [2]: 77 nM

Question: For `N#CC1CN(C2CCCC(F)(F)C2)C(=O)N1c1cncc2ccccc12` (stereo not drawn) [Compound 29, 1-(3,3-difluorocyclohexyl)-3-(isoquinolin-4-yl)-2-oxoimidazolidine-4-carbonitrile], which IC50 [1] is on record?
Answer: 20 to 200 nM

Question: For `CC(C)(O)c1ccc2cncc(N3C(=O)N(c4cccc(Cl)c4)CC3C#N)c2c1` (stereo not drawn) [Compound 34, 1-(3-chlorophenyl)-3-(6-(2-hydroxypropan-2-yl)isoquinolin-4-yl)-2-oxoimidazolidine-4-carbonitrile], which IC50 [1] is on record?
Answer: < 20 nM

Question: For `N#CC1CN(c2cccc(Cl)c2)C(=O)N1c1cncc2ccc(C(N)=O)cc12` (stereo not drawn) [Compound 35, 4-(3-(3-chlorophenyl)-5-cyano-2-oxoimidazolidin-1-yl)isoquinoline-6-carboxamide], which IC50 [1] is on record?
Answer: < 20 nM

Question: With `COCCNC(=O)c1ccc2cncc(N3C(=O)N(c4cccc(Cl)c4)CC3C#N)c2c1` (stereo not drawn) [Compound 36, 4-(3-(3-chlorophenyl)-5-cyano-2-oxoimidazolidin-1-yl)-N-(2-methoxyethyl)isoquinoline-6-carboxamide] as the compound, how does the IC50 [1] read?
Answer: 20 to 200 nM

Question: `N#C[C@H]1CN([C@H]2C[C@H](C(F)(F)F)C2)C(=O)N1c1cncc2ccccc12` [Compound 45a, (R)-3-(isoquinolin-4-yl)-2-oxo-1-((1 r,3R)-3-(trifluoromethyl)cyclobutyl)imidazolidine-4-carbonitrile] was tested. Which IC50 [1] did it give?
Answer: < 20 nM

Question: For `N#C[C@H]1CN([C@H]2C[C@@H](C(F)(F)F)C2)C(=O)N1c1cncc2ccccc12` [Compound 45b, (R)-3-(isoquinolin-4-yl)-2-oxo-1-((1s,3S)-3-(trifluoromethyl)cyclobutyl)imidazolidine-4-carbonitrile], which IC50 [1] is on record?
Answer: 200 to 1000 nM

Question: `C[C@H]1C[C@H](N2C[C@H](C#N)N(c3cncc4ccccc34)C2=O)C1` [Compound 120b, (R)-3-(isoquinolin-4-yl)-1-((1 r,3R)-3-methylcyclobutyl)-2-oxoimidazolidine-4-carbonitrile] was tested. Which IC50 [1] did it give?
Answer: 20 to 200 nM

Question: `N#C[C@@H]1CN([C@H]2CC[C@H](F)CC2)C(=O)N1c1cncc2ccccc12` [Compound 121c, (S)-1-((1 r,4S)-4-fluorocyclohexyl)-3-(isoquinolin-4-yl)-2-oxoimidazolidine-4-carbonitrile] was tested. Which IC50 [1] did it give?
Answer: > 1000 nM

Question: For `CC(C)[C@H]1C[C@@H](N2C[C@H](C#N)N(c3cncc4ccccc34)C2=O)C1` [Compound 123a, (R)-1-((1s,3S)-3-isopropylcyclobutyl)-3-(isoquinolin-4-yl)-2-oxoimidazolidine-4-carbonitrile], which IC50 [1] is on record?
Answer: < 20 nM

Question: How did the IC50 [1] turn out when `CC(C)[C@H]1C[C@H](N2C[C@H](C#N)N(c3cncc4ccccc34)C2=O)C1` [Compound 123b, (R)-1-((1r,3R)-3-isopropylcyclobutyl)-3-(isoquinolin-4-yl)-2-oxoimidazolidine-4-carbonitrile] was run?
Answer: < 20 nM

Question: With `CC(C)[C@H]1C[C@@H](N2C[C@@H](C#N)N(c3cncc4ccccc34)C2=O)C1` [Compound 123c, (S)-1-((1s,3R)-3-isopropylcyclobutyl)-3-(isoquinolin-4-yl)-2-oxoimidazolidine-4-carbonitrile] as the compound, how does the IC50 [1] read?
Answer: > 1000 nM

Question: How did the IC50 [1] turn out when `CC(C)[C@H]1C[C@H](N2C[C@@H](C#N)N(c3cncc4ccccc34)C2=O)C1` [Compound 123d, (S)-1-((1r,3S)-3-isopropylcyclobutyl)-3-(isoquinolin-4-yl)-2-oxoimidazolidine-4-carbonitrile] was run?
Answer: > 1000 nM

Question: For `N#C[C@H]1CN([C@H]2C[C@@H](C3CC3)C2)C(=O)N1c1cncc2ccccc12` [Compound 124a, (R)-1-((1s,3S)-3-cyclopropylcyclobutyl)-3-(isoquinolin-4-yl)-2-oxoimidazolidine-4-carbonitrile], which IC50 [1] is on record?
Answer: < 20 nM

Question: `N#C[C@H]1CN([C@H]2C[C@H](C3CC3)C2)C(=O)N1c1cncc2ccccc12` [Compound 124b, (R)-1-((1r,3R)-3-cyclopropylcyclobutyl)-3-(isoquinolin-4-yl)-2-oxoimidazolidine-4-carbonitrile] was tested. Which IC50 [1] did it give?
Answer: < 20 nM

Question: Which IC50 [1] does the source give for `N#C[C@@H]1CN([C@H]2C[C@H](C3CC3)C2)C(=O)N1c1cncc2ccccc12` [Compound 124c, (S)-1-((1r,3S)-3-cyclopropylcyclobutyl)-3-(isoquinolin-4-yl)-2-oxoimidazolidine-4-carbonitrile] here?
Answer: > 1000 nM

Question: Which IC50 [1] does the source give for `N#C[C@@H]1CN([C@H]2C[C@@H](C3CC3)C2)C(=O)N1c1cncc2ccccc12` [Compound 124d, (S)-1-((1s,3R)-3-cyclopropylcyclobutyl)-3-(isoquinolin-4-yl)-2-oxoimidazolidine-4-carbonitrile] here?
Answer: > 1000 nM

Question: For `N#CC1CN([C@H]2CC[C@H](C(F)(F)F)CC2)C(=O)N1c1cncc2ccccc12` (stereo partly drawn) [Compound 128, 3-(isoquinolin-4-yl)-2-oxo-1-((1 r,4r)-4-(trifluoromethyl)cyclohexyl)imidazolidine-4-carbonitrile], which IC50 [1] is on record?
Answer: < 20 nM

Question: With `N#C[C@H]1CN([C@H]2CC[C@H](C(F)(F)F)CC2)C(=O)N1c1cncc2ccccc12` [Compound 128a, (R)-3-(isoquinolin-4-yl)-2-oxo-1-((1 r,4R)-4-(trifluoromethyl)cyclohexyl)imidazolidine-4-carbonitrile] as the compound, how does the IC50 [1] read?
Answer: < 20 nM

Question: For `N#C[C@@H]1CN([C@H]2CC[C@H](C(F)(F)F)CC2)C(=O)N1c1cncc2ccccc12` [Compound 128b, (S)-3-(isoquinolin-4-yl)-2-oxo-1-((1 r,4R)-4-(trifluoromethyl)cyclohexyl)imidazolidine-4-carbonitrile], which IC50 [1] is on record?
Answer: > 1000 nM

Question: Which IC50 [1] does the source give for `CN1CC(N2CC(C#N)N(c3cncc4ccccc34)C2=O)C1` (stereo not drawn) [Compound 132, 3-(isoquinolin-4-yl)-1-(1-methylazetidin-3-yl)-2-oxoimidazolidine-4-carbonitrile] here?
Answer: > 1000 nM

Source: US20250092016A1, “COMPOUNDS AND COMPOSITIONS FOR THE TREATMENT OF CORONAVIRAL RELATED DISEASES” (priority 2021, published 2025)
